{
  "source": "patent US5886185A",
  "about": "“Polyamine-linked acridine dimers” (Development Center for Biotechnoloy, priority 1997, dated 1999)",
  "key": {"pUC19 plasmid": {"tested_on": "pUC19 plasmid", "experiment": "DNA intercalating assay (DNA band shift)", "assay_type": "binding", "protocol": "A culture of JM83 bacteria containing a pUC19 plasmid was grown in 500 mL of ampicillin culture medium, and harvested by centrifugation at 4000 rpm for 15 minutes at 4° C. The pellets were lysed by alkali method and the DNA plasmids were collected as the lower band (corresponding to the closed circular DNA) of a centrifuge tube after CsCl-ethidium bromide gradient centrifugation. This collection method is described in, for example, Molecular Cloning: A Laboratory Manual, Cold Spring Harbor Laboratory Press, (1989). After removal of ethidium bromide from the DNA plasmids with 1-butanol saturated with water, the CsCl was removed by dialysis with TE (pH 8.0) buffer.\nThe pUC19 plasmid (1 μg in each reaction) was incubated with various concentrations of solutions containing different polyamine-linked acridine dimers for 30 minutes at 25° C. in 20 μL reaction mixtures (10 mM Tris-HCl, pH 7.4, 0.1 mM EDTA, and 5 mM NaCl). After reaction, the DNA mixture was run on a 1.0% agarose gel, which was stained with ethidium bromide and destained with distilled water. The shifts of the DNA bands were visualized using UV light and analyzed by photography. The DNA band shifting pattern formed a sigmoidal curve. The 50% shift concentration (SC50) corresponded to a 50% DNA band shift at the particular concentration, according to the curve of the DNA band-shifting photograph."}, "[1]": {"tested_on": "human COLO 205 solid tumors", "experiment": "in vivo antitumor activity for human COLO 205 solid tumors", "parameters": "species or system human tumor in SCID mice", "protocol": "SCID mice (16-18 g, 4-5 weeks old) were obtained from the animal center at the medical center of National Taiwan University, Taipei, R.O.C. and allowed to acclimate to their new environment for one week. The mice were given a sterilized pellet diet and sterilized water ad libitum, and housed under specific pathogene-free conditions in a temperature range between 23°-25° C. and a humidity of about 50±10%. The lighting was automatically operated on a 12 hour light/dark cycle. COLO 205 cells were obtained from ATCC, propagated in culture medium, and subcutaneously inoculated into the dorsal site of the mice.\nAfter solid tumors were grown up to a size of about 1 gram, COLO 205F1 was isolated from the primary culture of the solid tumor and inoculated into the dorsal site of the mice. These tumors were grown to a size of approximately 200 mg (i.e., in a range of 100-300 mg). The mice were sorted according to body weight into groups including five mice. The compounds of Examples 5 and 6 were respectively resuspended in various solvents. The dosage of each compound was intraperitoneally (ip) or intravenously (iv) administered with different schedules. Tumor weights at the beginning of chemotherapy and at weekly intervals thereafter were estimated using two dimensional caliper measurements and calculated with the formula for an ellipsoid. Tumor weight was L X W^2 ×0.5, where L is the major axis and […] is the width of the tumor. The percentage of tumor growth (%TGI) was calculated according to the formula (1-(mean tumor weight of treated group/mean tumor weight of control group))×100. The tumor weights were corrected for tumor weight at the beginning of treatment. Tumor growth inhibition data were analyzed for statistical significance using the pooled variance t test. The tumor weights were monitored until termination of experiment.\nSeveral studies of salt preparations, different formulations, and various administration routes and schedules were performed for the compounds of example 5 or 6 in order to identify their in vivo antitumor activities for human COLO 205 solid tumors. Tumor growth inhibitor studies of the compound of Example 5 were carried out in 1% carboxymethyl-cellulose against human COLO 205 solid tumors in SCID mice by ip administration with a schedule of Q4D×3 or by iv administration with a schedule of (Q1D×5)×2. Tumor growth inhibition studies of the compound at Example 6 were carried out in distilled H2 O against human COLO 205 solid tumor in SCID mice by iv administration with a schedule of (Q2D×3)×2 or in 2.5% cremophor against human COLO 205 solid tumor in SCID mice by iv administration with a schedule of (Q2D×3)×2."}, "water solubility": {"experiment": "water solubility", "assay_type": "physicochemical", "conditions": "Table I"}},
  "note": "Structures can show the parent of a compound that is named as a salt.",
  "data": [
    {"compound": "O=c1[nH]cc(F)c(=O)[nH]1", "note": "[Example 5-Fu, reference compound]", "values": [
      {"measurement": "DNA intercalating activity", "setting": "pUC19 plasmid; negative control", "result": "did not show DNA intercalating activity"}
    ]},
    {"compound": "COc1ccc2nc3cc(Cl)ccc3c(NCCCNCCCNc3c4ccc(Cl)cc4nc4ccc(OC)cc34)c2c1", "note": "[Example 5]", "values": [
      {"measurement": "in vivo antitumor activity", "setting": "[1]; 1% carboxymethyl-cellulose, ip, Q4D×3", "result": "did not show in vivo antitumor activity"},
      {"measurement": "in vivo antitumor activity", "setting": "[1]; 1% carboxymethyl-cellulose, iv, (Q1D×5)×2", "result": "did not show in vivo antitumor activity"}
    ]},
    {"compound": "COc1ccc2nc3cc(Cl)ccc3c(NCCCNCCCNc3c4ccc(Cl)cc4nc4ccc(OC)cc34)c2c1", "note": "[Example 6]", "values": [
      {"measurement": "solubility", "setting": "water solubility", "result": 8000, "unit": "µg/mL"},
      {"measurement": "in vivo antitumor activity, dose-response relationship", "setting": "[1]; 2.5% cremophor, iv, (Q2D×3)×2", "result": "had the dose-response relationship of in vivo antitumor activity"},
      {"measurement": "in vivo antitumor activity", "setting": "[1]; distilled H2O, iv, (Q2D×3)×2", "result": "demonstrated in vivo antitumor activity"}
    ]},
    {"compound": "COc1ccc2nc3cc(Cl)ccc3c(NCCCN(C)CCCNc3c4ccc(Cl)cc4nc4ccc(OC)cc34)c2c1", "note": "[Example 12 (acetic acid salt)]", "values": [
      {"measurement": "solubility", "setting": "water solubility", "result": 10000, "unit": "µg/mL"}
    ]},
    {"compound": "COc1cccc2c1C(=O)c1c(O)c3c(c(O)c1C2=O)C[C@@](O)(C(=O)CO)C[C@@H]3O[C@H]1C[C@H](N)[C@H](O)[C@H](C)O1", "note": "[adriarnycin, reference compound]", "values": [
      {"measurement": "EC50", "setting": "pUC19 plasmid; pUC19 plasmid, 30 minutes, 25° C., pH 7.4, read-out: SC50 (50% shift concentration)", "result": "10 to 15", "unit": "µM"}
    ]}
  ]
}
